Structures can show the parent of a compound that is named as a salt. Where two headings read alike, the source gives them in different places.
How the values were obtained:
[1] = test system: staphyloxanthin (STX) biosynthesis in S. aureus; assay: Staphyloxanthin biosynthesis inhibition assay; format: cell-based, Staphylococcus aureus
Procedure: The question next arises: how potent are these compounds in inhibiting STX biosynthesis in S. aureus? We thus treated S. aureus bacteria with serially diluted compounds at 37° C. for 3 days, after which the STX pigment was extracted with methanol. Optical densities were measured at 450 nm and IC50 values for inhibition of pigment formation for each compound were calculated using a standard dose-response curve. The rank ordered IC50 values of the 38 compounds investigated are shown in Table 7 and dose-response curves of representative compounds are shown in FIG. 2.
The S. aureus strain used was the WT clinical isolate (Pig1) (4). S. aureus was cultured in THB (1 mL) in the presence of inhibitor compounds for 72 h, in duplicate. Cells were then centrifuged and washed twice with PBS. STX was extracted with MeOH and the O.D. was determined at 450 nm using a Perkin Elmer MBA 2000 (Norwalk, Conn.) spectrophotometer.

[2] = biological target: S. aureus CrtM (dehydrosqualene synthase) (Staphylococcus aureus, UniProt A9JQL9); assay: CrtM enzyme inhibition assay; details: for as active as 1 in CrtM inhibition: fold more active
[3] = Table 7, S. aureus, 37° C., 3 days, read-out: Staphyloxanthin IC50
[4] = read-out: CrtM IC50 values, Table 4
[5] = read-out: CrtM enzyme experimental activity IC50, Table 5
[6] = Staphylococcus aureus, 72 h, read-out: Staphyloxanthin IC50
[7] = Staphylococcus aureus, read-out: IC50 (STX)

S. aureus CrtM (dehydrosqualene synthase), sequence (A9JQL9 whole entry): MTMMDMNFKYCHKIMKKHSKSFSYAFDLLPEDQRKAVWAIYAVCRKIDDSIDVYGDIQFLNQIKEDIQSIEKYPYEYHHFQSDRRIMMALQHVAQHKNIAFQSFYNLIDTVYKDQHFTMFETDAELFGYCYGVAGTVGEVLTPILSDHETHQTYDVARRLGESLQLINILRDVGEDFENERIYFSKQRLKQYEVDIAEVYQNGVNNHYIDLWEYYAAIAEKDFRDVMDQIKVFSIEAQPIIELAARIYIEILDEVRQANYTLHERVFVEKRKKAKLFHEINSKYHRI

Compound	IC50 [1, 3] [µM]	CrtM enzyme experimental activity pIC50 ([2]; Table 5)	IC50 [2, 4] [µM]	IC50 [2, 5] [µM]	IC50 [1, 6] [µM]	other results
1-Phosphono-4-[3-(2-fluorophenoxy)phenyl]butylsulfonic acid tripotassium salt [Compound 21]	0.51	5.16	6.9	6.9	–	–
1-Phosphono-4-[3-(2-trifluoromethylphenoxy)phenyl]butylsulfonic acid tripotassium salt [Compound 23]	0.46	4.27	53.7	53.7	–	–
1-Phosphono-4-[3-(3,4-dichlorophenoxy)phenyl]butylsulfonic acid tripotassium salt [Compound 31]	0.011	5.65	2.2	2.2	–	–
1-Phosphono-4-[3-(3,4-difluorophenoxy)phenyl]butylsulfonic acid tripotassium salt [Compound 30]	0.11	5.76	1.7	1.7	–	–
1-Phosphono-4-[3-(3,5-dichlorophenoxy)phenyl]butylsulfonic acid tripotassium salt [Compound 34]	0.051	5.2	6.3	6.3	–	–
1-Phosphono-4-[3-(3,5-difluorophenoxy)phenyl]butylsulfonic acid tripotassium salt [Compound 33]	0.015	5.34	4.6	4.6	–	–
1-Phosphono-4-[3-(3-fluorophenoxy)phenyl]butylsulfonic acid tripotassium salt [Compound 20]	0.22	5.66	2.2	2.2	–	–
1-Phosphono-4-[3-(3-trifluoromethylphenoxy)phenyl]butylsulfonic acid tripotassium salt [Compound 22]	0.074	5.01	9.8	9.8	–	–
1-Phosphono-4-[3-(4-chlorophenoxy)phenyl]butylsulfonic acid tripotassium salt [Compound 24]	0.039	5.6	2.5	2.5	–	–
1-Phosphono-4-[3-(4-fluorophenoxy)-6-fluoro-phenyl]butylsulfonic acid tripotassium salt [Compound 35]	0.059	5.68	2.1	2.1	–	–
1-Phosphono-4-[3-(4-fluorophenoxy)-6-methoxy-phenyl]butylsulfonic acid tripotassium salt [Compound 36]	13.8	–	–	–	–	–
1-Phosphono-4-[3-(4-hydroxyphenoxy)phenyl]butylsulfonic acid tripotassium salt [Compound 27]	6.8	–	–	–	–	–
1-Phosphono-4-[3-(4-phenoxyphenoxy)phenyl]butylsulfonic acid tripotassium salt [Compound 28]	0.1	–	–	–	–	–
1-Phosphono-4-[3-(benzofuran-5-yloxy)phenyl]butylsulfonic acid tripotassium salt [Compound 32]	0.015	5.67	2.1	2.1	–	–
1-Phosphono-4-[3-[4-(furan-2-yl)phenoxy]phenyl]butylsulfonic acid tripotassium salt [Compound 29]	1.1	4.58	26.3	26.3	–	–
O=P(O)(O)C(CCCc1ccc(-c2ccccc2)cc1)P(=O)(O)O [Compound 2, 4-(4-Biphenyl)butyldiphosphonic acid tetrapotassium salt]	–	–	–	–	2.2	IC50 [2]: 0.48 µM; Ki [2]: ~0.001 µM; IC50 ([2]; read-out: IC50 against CrtM): 0.5 µM
CP(=O)([O-])C(CCCc1ccc(-c2ccccc2)cc1)P(=O)([O-])[O-].[K+].[K+].[K+] (centres unmarked) [Compound 4, dipotassium salt]	–	–	–	–	1.4	–
O=P([O-])([O-])C(CCCc1cccc(Oc2ccc(F)cc2)c1)S(=O)(=O)[O-].[K+].[K+].[K+] (centres unmarked) [Compound 5, 1-Phosphono-4-[3-(4-fluorophenoxy)phenyl]butylsulfonic acid tripotassium salt]	–	–	–	–	0.052	IC50 [2]: 2.34 µM; Ki [2]: ~0.005 µM; as active as 1 in CrtM inhibition ([2]; versus 1): ~4 ×; IC50 ([2]; read-out: IC50 against CrtM): 2.3 µM

Compound	IC50 [1, 3] [µM]	CrtM enzyme experimental activity pIC50 ([2]; Table 5)	IC50 [2, 4] [µM]	IC50 [2, 5] [µM]	IC50 [1, 6] [µM]	other results
CCCc1ccc(Oc2cccc(CCCC(P(=O)([O-])[O-])S(=O)(=O)[O-])c2)cc1.[K+].[K+].[K+] (centres unmarked) [Compound 6, 1-Phosphono-4-[3-(4-propylphenoxy)phenyl]butylsulfonic acid tripotassium salt]	–	–	–	–	0.093	IC50 [1, 7]: 0.1 µM; IC50 ([1]; Staphylococcus aureus, read-out: IC50 for STX biosynthesis): 0.093 µM; Ki [2]: ~0.005 µM; as active as 1 in CrtM inhibition ([2]; versus 1): ~4 ×; IC50 ([2]; read-out: IC50 (CrtM), Table 1): 2.2 µM
O=P(O)(O)C(CCCc1cccc(Oc2ccc(C(F)(F)F)cc2)c1)S(=O)(=O)O (centres unmarked) [Compound 7, 1-Phosphono-4-[3-(4-trifluoromethylphenoxy)phenyl]butylsulfonic acid tripotassium salt]	–	–	7.2	–	0.04	–
O=P([O-])([O-])C(CCCc1cccc(Oc2ccccc2Cc2ccccc2)c1)S(=O)(=O)[O-].[K+].[K+].[K+] (centres unmarked) [Compound 8, 1-Phosphono-4-[3-(2-benzylphenoxy)phenyl]butylsulfonic acid tripotassium salt]	–	4.43	–	–	0.019	less active than 1 in CrtM inhibition ([2]; fold, versus 1): ~5 ×
O=P([O-])([O-])C(CCCc1ccc(-c2ccccc2)cc1)S(=O)(=O)[O-].[K+].[K+].[K+] (centres unmarked) [Compound 9, 1-Phosphono-4-(4-biphenyl)butylsulfonic acid tripotassium salt]	–	–	–	–	0.35	–
O=P(O)(O)C(CCCc1ccc(-c2ccc(F)cc2F)cc1)S(=O)(=O)O (centres unmarked) [Compound 10, 1-Phosphono-4-[4-(2,4-difluorophenyl)phenyl]butylsulfonic acid tripotassium salt]	–	–	–	9.1	0.18	–
Cc1ccc(-c2ccc(CCCC(P(=O)(O)O)S(=O)(=O)O)cc2)cc1 (centres unmarked) [Compound 11, 1-Phosphono-4-[4-(4-methylphenyl)phenyl]butylsulfonic acid tripotassium salt]	–	–	–	24.5	0.18	–
CCCCc1ccc(-c2ccc(CCCC(P(=O)([O-])[O-])S(=O)(=O)[O-])cc2)cc1.[K+].[K+].[K+] (centres unmarked) [Compound 12, 1-Phosphono-4-[4-(4-butylphenyl)phenyl]butylsulfonic acid tripotassium salt]	–	–	–	–	0.16	–
CCCOc1cccc(-c2ccc(CCCC(P(=O)(O)O)S(=O)(=O)O)cc2)c1 (centres unmarked) [Compound 13, 1-Phosphono-4-[4-(3-propoxyphenyl)phenyl]butylsulfonic acid tripotassium salt]	–	–	–	123	0.49	–
O=P(O)(O)C(CCCc1cccc(Nc2ccccc2)c1)S(=O)(=O)O (centres unmarked) [Compound 16, 1-Phosphono-4-(3-phenylaminophenyl)butylsulfonic acid tripotassium salt]	–	–	–	–	0.5	IC50 ([2]; read-out: IC50 against CrtM): 43.7 µM
O=P(O)(O)C(CCCc1cccc(Cc2ccccc2)c1)S(=O)(=O)O (centres unmarked) [Compound 17, 1-Phosphono-4-(3-benzylphenyl)butylsulfonic acid tripotassium salt]	–	–	–	20.4	0.17	–
O=P([O-])([O-])C(CCCc1ccc(Oc2ccccc2)cc1)S(=O)(=O)[O-].[K+].[K+].[K+] (centres unmarked) [Compound 18, 1-Phosphono-4-(4-phenoxyphenyl)butylsulfonic acid tripotassium salt]	–	–	–	–	0.19	–
CCn1c2ccccc2c2cc(CCCC(P(=O)(O)O)S(=O)(=O)O)ccc21 (centres unmarked) [Compound 19, 1-Phosphono-4-(9-ethylcarbazole-3-yl)butylsulfonic acid tripotassium salt]	–	–	–	–	263	–
CC(C)(C)c1ccc(Oc2cccc(CCCC(P(=O)(O)O)S(=O)(=O)O)c2)cc1 (centres unmarked) [Compound 25, 1-Phosphono-4-[3-(4-tert-butylphenoxy)phenyl]butylsulfonic acid tripotassium salt]	–	–	–	–	0.021	IC50 [1, 7]: 0.021 µM; IC50 ([2]; read-out: IC50 (CrtM), Table 1): 10.5 µM
O=P(O)(O)C(CCCc1cccc(Oc2ccc(Cc3ccccc3)cc2)c1)S(=O)(=O)O (centres unmarked) [Compound 26, 1-Phosphono-4-[3-(4-benzylphenoxy)phenyl]butylsulfonic acid tripotassium salt]	–	–	–	–	0.049	IC50 [1, 7]: 0.049 µM; IC50 ([2]; read-out: IC50 (CrtM), Table 1): 13.5 µM
O=P(O)(O)[C@@H](CCCc1cccc(Oc2ccccc2)c1)S(=O)(=O)O [Compound (R)-1, (1R)-1-Phosphono-4-(3-phenoxyphenyl)butylsulfonic acid tripotassium salt]	–	–	–	–	0.31	–
O=P([O-])([O-])[C@H](CCCc1cccc(Oc2ccccc2)c1)S(=O)(=O)[O-].[K+].[K+].[K+] [Compound (S)-1, (1S)-1-Phosphono-4-(3-phenoxyphenyl)butylsulfonic acid tripotassium salt]	–	–	–	–	0.05	more active than its (R)-enantiomer in CrtM inhibition ([2]; fold, versus (R)-1): ~30 ×; IC50 ([2]; read-out: IC50 against CrtM): 1.4 µM
O=C(CP(=O)(O)O)NCCCc1ccc(-c2ccccc2)cc1 [compound 846]	–	–	–	–	–	IC50 [2]: 165 µM
O=C(O)CC(=O)NCCCc1cccc(Oc2ccccc2)c1 [compound 888]	–	–	–	–	–	IC50 [2]: > 1500 µM

From patent US20120022024A1, “ANTI-BACTERIAL COMPOSITIONS AND METHODS INCLUDING TARGETING VIRULENCE FACTORS OF STAPHYLOCOCCUS AUREUS” (priority 2009, published 2012)
